# Key:
# [1] = molecular target: T1, BTK (Homo sapiens, UniProt Q06187); experiment: Cell Degradation: BTK degradation in TMD-8 cells, HTRF assay; assay type: cell-based; conditions: 6 h treatment, IC50 (DC50) of BTK degradation
# T1 construct: High control=Cell group with added DMSO and without compound, indicating microplate readings without BTK degradation; endogenous in cells; host or cells: TMD-8 cells
# Procedure, shortened: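 BTK levels read by HTRF (665 vs 620 nm) in lysates of TMD-8 cells after 6 h compound exposure (eight doses, 6-fold steps, 0.2% DMSO). Percent degradation relative to controls; four-parameter curve fitting gave DC50, with Dmax the top degradation.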
# [2] = test system: HEK-293 cells; experiment: HEK-293 Cytotoxicity Assay (CellTiter-Glo); assay type: cell-based; conditions: Homo sapiens, HEK293, 72 h incubation, CellTiter-Glo luminescence
# Procedure, shortened: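 Four-parameter fit of % inhibition gives IC50, from CellTiter-Glo luminescent viability read-out. Cells exposed for 72 h to an 8-point, 4-fold series at 0.2% DMSO.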
# T1 sequence (Q06187 whole entry): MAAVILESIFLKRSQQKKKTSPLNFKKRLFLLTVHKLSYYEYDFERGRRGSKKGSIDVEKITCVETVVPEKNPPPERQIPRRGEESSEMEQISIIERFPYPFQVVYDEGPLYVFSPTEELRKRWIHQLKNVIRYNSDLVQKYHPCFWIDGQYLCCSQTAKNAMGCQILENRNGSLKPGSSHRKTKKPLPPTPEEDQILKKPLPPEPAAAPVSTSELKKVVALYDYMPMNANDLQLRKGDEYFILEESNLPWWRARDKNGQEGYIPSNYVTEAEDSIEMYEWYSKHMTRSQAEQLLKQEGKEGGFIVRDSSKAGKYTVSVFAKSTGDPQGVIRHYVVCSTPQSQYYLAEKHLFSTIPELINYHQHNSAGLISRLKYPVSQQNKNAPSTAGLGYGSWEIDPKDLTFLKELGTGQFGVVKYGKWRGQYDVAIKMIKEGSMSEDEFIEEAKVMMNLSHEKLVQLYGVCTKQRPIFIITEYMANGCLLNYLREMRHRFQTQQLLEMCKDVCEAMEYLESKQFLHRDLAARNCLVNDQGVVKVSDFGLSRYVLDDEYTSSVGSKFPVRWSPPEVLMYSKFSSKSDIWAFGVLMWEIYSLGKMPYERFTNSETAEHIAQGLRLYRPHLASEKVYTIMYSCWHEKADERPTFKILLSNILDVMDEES
Structure (SMILES),DC50 [1],IC50 [2]
"Cc1cc(-c2ncnc3[nH]c(-c4c(C)nn(C5CCN(C(=O)CNCC6CCN(c7ccc(N8CCC(=O)NC8=O)cc7)CC6)CC5)c4C)cc23)ccc1[C@@H](C)NC(=O)c1nc(C(C)(C)C)no1 [Example 161, (R)-3-(tert-butyl)-N-(1-(4-(6-(1-(1-(((1-(4-(2,4-dioxotetrahydropyrimidin-1(2H)-yl)phenyl)piperidin-4-yl)methyl)glycyl)piperidin-4-yl)-3,5-dimethyl-1H-pyrazol-4-yl)-7H-pyrrolo[2,3-d]pyrimidin-4-yl)-2-methylphenyl)ethyl)-1,2,4-oxadiazole-5-carboxamide]",0.92 nM,3550 nM
"Cc1c(NC(=O)c2ccc(C(C)(C)O)cc2F)cc(F)cc1-c1ncnc2[nH]c(-c3ccc(C4CCN(CC5CCN(c6ccc(N7CCC(=O)NC7=O)cc6)CC5)CC4)cc3)cc12 [Example 28, N-(3-(6-(4-(1-((1-(4-(2,4-dioxotetrahydropyrimidin-1(2H)-yl)phenyl)piperidin-4-yl)methyl)piperidin-4-yl)phenyl)-7H-pyrrolo[2,3-d]pyrimidin-4-yl)-5-fluoro-2-methylphenyl)-2-fluoro-4-(2-hydroxypropan-2-yl)benzamide]",1.5 nM,4240 nM
"Cc1cc(-c2ncnc3[nH]c(-c4ccc(N5CCN(CC6CCN(c7ccc(N8CCC(=O)NC8=O)cc7)CC6)C(=O)C5)cc4)cc23)ccc1[C@@H](C)NC(=O)c1nc(C(C)(C)C)no1 [Example 190, (R)-3-(tert-butyl)-N-(1-(4-(6-(4-(4-((1-(4-(2,4-dioxotetrahydropyrimidin-1(2H)-yl)phenyl)piperidin-4-yl)methyl)-3-oxopiperazin-1-yl)phenyl)-7H-pyrrolo[2,3-d]pyrimidin-4-yl)-2-methylphenyl)ethyl)-1,2,4-oxadiazole-5-carboxamide]",0.28 nM,> 10000 nM
"Cc1cc(-c2ncnc3[nH]c(-c4ccc(N5CCCN(CC6CCN(c7ccc(N8CCC(=O)NC8=O)cc7)CC6)CC5)cc4)cc23)ccc1[C@@H](C)NC(=O)c1nc(C(C)(C)C)no1 [Example 167, (R)-3-(tert-butyl)-N-(1-(4-(6-(4-(4-((1-(4-(2,4-dioxotetrahydropyrimidin-1(2H)-yl)phenyl)piperidin-4-yl)methyl)-1,4-diazepan-1-yl)phenyl)-7H-pyrrolo[2,3-d]pyrimidin-4-yl)-2-methylphenyl)ethyl)-1,2,4-oxadiazole-5-carboxamide]",2.61 nM,> 10000 nM
"COc1cc(N2CCC(CN3CCN(c4ccc(-c5cc6c(-c7ccc([C@@H](C)NC(=O)c8nc(C(C)(C)C)no8)c(C)c7)ncnc6[nH]5)cc4)CC3)CC2)ccc1N1CCC(=O)NC1=O [Example 45, (R)-3-(tert-butyl)-N-(1-(4-(6-(4-(4-((1-(4-(2,4-dioxotetrahydropyrimidin-1(2H)-yl)-3-methoxyphenyl)piperidin-4-yl)methyl)piperazin-1-yl)phenyl)-7H-pyrrolo[2,3-d]pyrimidin-4-yl)-2-methylphenyl)ethyl)-1,2,4-oxadiazole-5-carboxamide]",1.8 nM,> 10000 nM
"C[C@@H](NC(=O)c1nc(C(C)(C)C)no1)c1ccc(-c2ncnc3[nH]c(-c4ccc(N5CCN(CC6CCN(c7ccc(N8CCC(=O)NC8=O)cc7)CC6)C[C@@H]5C)nc4)cc23)cc1F [Example 80, 3-(tert-butyl)-N-((R)-1-(4-(6-(6-((S)-4-((1-(4-(2,4-dioxotetrahydropyrimidin-1(2H)-yl)phenyl)piperidin-4-yl)methyl)-2-methylpiperazin-1-yl)pyridin-3-yl)-7H-pyrrolo[2,3-d]pyrimidin-4-yl)-2-fluorophenyl)ethyl)-1,2,4-oxadiazole-5-carboxamide]",4.3 nM,> 10000 nM
"Cc1cc(-c2ncnc3[nH]c(-c4ccc(N5CCN(CC6CCN(c7ccc(N8CCC(=O)NC8=O)c(C)c7)CC6)CC5)nc4)nc23)ccc1[C@@H](C)NC(=O)c1nc(C(C)(C)C)no1 [Example 65, (R)-3-(tert-butyl)-N-(1-(4-(8-(6-(4-((1-(4-(2,4-dioxotetrahydropyrimidin-1(2H)-yl)-3-methylphenyl)piperidin-4-yl)methyl)piperazin-1-yl)pyridin-3-yl)-9H-purin-6-yl)-2-methylphenyl)ethyl)-1,2,4-oxadiazole-5-carboxamide]",0.6 nM,> 10000 nM
"Cc1nn(C2CCN(CC3CCN(c4ccc(N5CCC(=O)NC5=O)cc4)CC3)CC2)c(C)c1-c1cc2c(-c3ccc([C@@H](C)NC(=O)c4cn(C(C)(C)C)nn4)c(CO)c3)ncnc2[nH]1 [Example 122, (R)-1-(tert-butyl)-N-(1-(4-(6-(1-(1-((1-(4-(2,4-dioxotetrahydropyrimidin-1(2H)-yl)phenyl)piperidin-4-yl)methyl)piperidin-4-yl)-3,5-dimethyl-1H-pyrazol-4-yl)-7H-pyrrolo[2,3-d]pyrimidin-4-yl)-2-(hydroxymethyl)phenyl)ethyl)-1H-1,2,3-triazole-4-carboxamide]",0.29 nM,4110 nM
"Cc1cc(-c2ncnc3[nH]c(-c4ccc(N5CCN(CC6CCN(c7ccc(N8CCC(=O)NC8=O)cc7)CC6)CC5)cc4)nc23)ccc1[C@@H](C)NC(=O)c1nc(C(C)(C)C)no1 [Example 25, (R)-3-(tert-butyl)-N-(1-(4-(8-(4-(4-((1-(4-(2,4-dioxotetrahydropyrimidin-1(2H)-yl)phenyl)piperidin-4-yl)methyl)piperazin-1-yl)phenyl)-9H-purin-6-yl)-2-methylphenyl)ethyl)-1,2,4-oxadiazole-5-carboxamide]",1.4 nM,> 10000 nM
"Cc1cc(-c2ncnc3[nH]c(-c4ccc(N5CCN(CC6CCN(c7ccc(N8CCC(=O)NC8=O)cc7)CC6)CC5)cn4)cc23)ccc1[C@@H](C)NC(=O)c1nnc(C(C)(C)C)o1 [Example 185, (R)-5-(tert-butyl)-N-(1-(4-(6-(5-(4-((1-(4-(2,4-dioxotetrahydropyrimidin-1(2H)-yl)phenyl)piperidin-4-yl)methyl)piperazin-1-yl)pyridin-2-yl)-7H-pyrrolo[2,3-d]pyrimidin-4-yl)-2-methylphenyl)ethyl)-1,3,4-oxadiazole-2-carboxamide]",0.5 nM,> 10000 nM
"Cc1cc(-c2ncnc3[nH]c(-c4ccc(C5(F)CCN(CC6CCN(c7ccc(N8CCC(=O)NC8=O)cc7)CC6)C5)cn4)cc23)ccc1[C@@H](C)NC(=O)c1nc(C(C)(C)C)no1 (stereo partly drawn) [Example 177, 3-(tert-butyl)-N-((1R)-1-(4-(6-(5-(1-((1-(4-(2,4-dioxotetrahydropyrimidin-1(2H)-yl)phenyl)piperidin-4-yl)methyl)-3-fluoropyrrolidin-3-yl)pyridin-2-yl)-7H-pyrrolo[2,3-d]pyrimidin-4-yl)-2-methylphenyl)ethyl)-1,2,4-oxadiazole-5-carboxamide]",0.99 nM,> 10000 nM
"Cc1cc(-c2ncnc3[nH]c(-c4ccc(C5CCN(CC6CCN(c7ccc(N8CCC(=O)NC8=O)cc7)CC6)CC5)cc4)cc23)ccc1CNC(=O)c1nc(C(C)(C)C)no1 [Example 1, 3-(tert-butyl)-N-(4-(6-(4-(1-((1-(4-(2,4-dioxotetrahydropyrimidin-1(2H)-yl)phenyl)piperidin-4-yl)methyl)piperidin-4-yl)phenyl)-7H-pyrrolo[2,3-d]pyrimidin-4-yl)-2-methylbenzyl)-1,2,4-oxadiazole-5-carboxamide]",0.54 nM,> 10000 nM
"Cc1c(-c2ncnc3[nH]c(-c4ccc(N5CCN(CC6CCN(c7ccc(N8CCC(=O)NC8=O)cc7)CC6)CC5)nc4)cc23)cccc1N1CCn2c(cc3c2CC(C)(C)C3)C1=O [Example 10, 1-(4-(4-((4-(5-(4-(3-(7,7-dimethyl-1-oxo-1,3,4,6,7,8-hexahydro-2H-cyclopenta[4,5]pyrrolo[1,2-a]pyrazin-2-yl)-2-methylphenyl)-7H-pyrrolo[2,3-d]pyrimidin-6-yl)pyridin-2-yl)piperazin-1-yl)methyl)piperidin-1-yl)phenyl)dihydropyrimidine-2,4(1H,3H)-dione]",3.4 nM,> 10000 nM
"Cc1cc(-c2ncnc3[nH]c(-c4ccc(N5CCN(CC6CCN(c7ccc(N8CCC(=O)NC8=O)c(F)c7)CC6)CC5)cc4)cc23)ccc1[C@@H](C)NC(=O)c1nc(C(C)(C)C)no1 [Example 111, (R)-3-(tert-butyl)-N-(1-(4-(6-(4-(4-((1-(4-(2,4-dioxotetrahydropyrimidin-1(2H)-yl)-3-fluorophenyl)piperidin-4-yl)methyl)piperazin-1-yl)phenyl)-7H-pyrrolo[2,3-d]pyrimidin-4-yl)-2-methylpheyl)ethyl)-1,2,4-oxadiazole-5-carboxamide]",2.3 nM,> 10000 nM
"Cc1cc(-c2ncnc3[nH]c(-c4c(C)nn(C5CN(CC6CCN(c7ccc(N8CCC(=O)NC8=O)cc7)CC6)C5)c4C)cc23)ccc1[C@@H](C)NC(=O)c1nc(C(C)(C)C)no1 [Example 169, (R)-3-(tert-butyl)-N-(1-(4-(6-(1-(1-((1-(4-(2,4-dioxotetrahydropyrimidin-1(2H)-yl)phenyl)piperidin-4-yl)methyl)azetidin-3-yl)-3,5-dimethyl-1H-pyrazol-4-yl)-7H-pyrrolo[2,3-d]pyrimidin-4-yl)-2-methylphenyl)ethyl)-1,2,4-oxadiazole-5-carboxamide]",0.52 nM,> 10000 nM
"CC(C)(C)c1noc(C(=O)NCc2ccc(-c3ncnc4[nH]c(-c5ccc(N6CCN(CC7CCN(c8ccc(N9CCC(=O)NC9=O)cc8)CC7)CC6)nc5)cc34)cc2F)n1 [Example 42, 3-(tert-butyl)-N-(4-(6-(6-(4-((1-(4-(2,4-dioxotetrahydropyrimidin-1(2H)-yl)phenyl)piperidin-4-yl)methyl)piperazin-1-yl)pyridin-3-yl)-7H-pyrrolo[2,3-d]pyrimidin-4-yl)-2-fluorobenzyl)-1,2,4-oxadiazole-5-carboxamide]",0.51 nM,> 10000 nM

# From patent US20230167118A1, “DEGRADATION OF BRUTON'S TYROSINE KINASE (BTK) BY CONJUGATION OF BTK INIDBITORS WITH E3 LIGASE LIGAND AND METHODS OF USE” (BEIGENE, LTD., priority 2020, published 2023)
